The text below walks through data of patent US20050032873A1, “3-Amino chroman and 2-amino tetralin derivatives” (Wyeth, priority 2003, published 2005).

The target of one assay is T1, serotonin transporter (Rattus norvegicus, UniProt P31652).
T1 construct: displace ^3H-paroxetine from male rat cortical membranes; from tissue; host or cells: male rat cortical membranes
The assay is described as follows: 5-HT transporter affinity: displacement of 3H-paroxetine from male rat cortical membranes. The format is binding. The conditions noted are these: for Ki: displacement of 3H-paroxetine, male rat cortical membranes, read-out: 5-HT Transporter Affinity Ki. (In general: Loss of bound radioactivity is the signal in a displacement assay; it reports binding, not function.)

Assay [1] deals with T2, cloned human 5-HT1A receptors (Homo sapiens, UniProt P08908).
T2 construct: expressed in transfected cells
T2 sequence (P08908 1-422): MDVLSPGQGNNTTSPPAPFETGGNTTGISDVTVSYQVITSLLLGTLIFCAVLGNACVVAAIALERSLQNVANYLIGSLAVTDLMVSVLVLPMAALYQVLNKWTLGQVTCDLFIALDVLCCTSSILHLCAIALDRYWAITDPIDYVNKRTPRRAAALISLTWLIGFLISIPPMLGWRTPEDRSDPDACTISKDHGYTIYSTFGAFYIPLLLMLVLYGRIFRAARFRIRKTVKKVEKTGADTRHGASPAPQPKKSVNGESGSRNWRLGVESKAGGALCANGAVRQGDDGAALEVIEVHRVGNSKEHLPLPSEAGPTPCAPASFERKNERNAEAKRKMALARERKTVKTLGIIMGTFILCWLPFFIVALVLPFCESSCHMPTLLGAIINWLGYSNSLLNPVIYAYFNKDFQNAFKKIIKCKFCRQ
The assay is described as follows: 35S-GTPγS binding assay, 5-HT1A function. The format is biochemical. The conditions noted are these: for EC50: agonist potency; for IC50: antagonist potency, reversal of 8-OH-DPAT, read-out: 5-HT1A Function GTPγS IC50.

The target of assay [2] is T3, 5-HT1A receptor (Homo sapiens, UniProt P08908).
T3 sequence (P08908 1-422): T2 sequence (P08908 1-422)
The assay is described as follows: cAMP accumulation assay, 5-HT1A function. The conditions noted are these: for EC50: cells marked EC50 (agonist); for IC50: cells marked IC50 (antagonist), read-out: 5-HT1A Function cAMP IC50. The format is cell-based. (Cyclic AMP is a second messenger, typically raised through Gs and lowered through Gi signalling.)

Assay [3] addresses T3, 5-HT1A receptor. The assay is described as follows: 5-HT1A receptor affinity: displacement of [3H] 8-OH-DPAT. More on the design: expressed in transfected cells. The conditions noted are these: displacement of [3H] 8-OH-DPAT; CHO cells stably transfected with human 5-HT1A receptors; read-out: 5-HT1A Receptor Affinity Ki. The assay is classed as binding.
The mark [4] stands for this setting: maximum inhibitory effect, in brackets after IC50, read-out: 5-HT1A Function GTPγS (Imax).
Where [5] appears, read: maximum stimulatory effect, in brackets after EC50, read-out: 5-HT1A Function GTPγS (Emax).
The mark [6] stands for this setting: in brackets after EC50 or IC50, read-out: 5-HT1A Function cAMP (Emax).
Setting [7] is: maximum inhibitory effect, in brackets after IC50.

SMILES strings stand for the structures. Read-outs that look alike come from different tables or passages of the source.

T1 sequence (P31652 whole entry): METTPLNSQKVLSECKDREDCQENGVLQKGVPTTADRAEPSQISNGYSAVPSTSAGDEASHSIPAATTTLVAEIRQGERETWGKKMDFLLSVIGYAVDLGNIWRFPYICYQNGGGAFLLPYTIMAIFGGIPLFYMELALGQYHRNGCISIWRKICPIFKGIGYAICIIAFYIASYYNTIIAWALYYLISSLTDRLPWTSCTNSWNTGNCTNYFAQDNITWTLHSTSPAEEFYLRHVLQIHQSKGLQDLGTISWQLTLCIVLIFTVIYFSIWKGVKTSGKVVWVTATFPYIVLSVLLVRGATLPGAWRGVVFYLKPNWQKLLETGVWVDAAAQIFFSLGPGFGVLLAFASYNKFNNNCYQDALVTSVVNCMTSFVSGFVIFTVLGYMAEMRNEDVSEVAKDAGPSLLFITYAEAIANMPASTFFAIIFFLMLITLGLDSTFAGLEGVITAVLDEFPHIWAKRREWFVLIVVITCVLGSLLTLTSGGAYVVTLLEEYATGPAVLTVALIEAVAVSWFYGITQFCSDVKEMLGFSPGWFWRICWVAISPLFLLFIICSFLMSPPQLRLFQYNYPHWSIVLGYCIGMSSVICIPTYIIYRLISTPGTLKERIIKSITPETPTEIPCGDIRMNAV

In the case of `CCCN(CCCc1c[nH]c2ccc(OC)cc12)C1COc2c(F)ccc(C(N)=O)c2C1` (centres unmarked) [Compound 106, 8-fluoro-3-[[3-(5-methoxy-1H-indol-3-yl)propyl](propyl)amino]chromane-5-carboxamide], on serotonin transporter (@ 1 μM), the “5-HT Transporter Affinity, % @ 1 μM” value was 53% @ 1 μM. The EC50 in assay [1] is 53.1 nM; on 5-HT1A receptor [2], 2.53 nM. Besides, the IC50 in assay [1] was 111 nM. Besides, the Emax was 42% in assay [1] (setting [4]), 47% in assay [1] (setting [5]) and 99% at 5-HT1A receptor [2] (setting [6]). The inhibition constant Ki on 5-HT1A receptor [3] stood at 0.61 nM.

In the case of `NC(=O)c1ccc(F)c2c1CC(N(CCCc1c[nH]c3c(F)cc(F)cc13)C1CCC1)CO2` (single isomer, unassigned; (-)) [Compound 9a, (−)-3-{cyclobutyl[3-(5,7-difluoro-1H-indol-3-yl)propyl]amino}-8-fluorochromane-5-carboxamide], the inhibition constant (Ki) at serotonin transporter was determined as 3.34 nM; at 5-HT1A receptor [3], 1.73 nM. Besides, the results for the 50% inhibitory concentration (IC50) (in assay [1]; at 5-HT1A receptor [2]) were 207 nM and 61.1 nM, respectively. The 5-HT1A Function GTPγS (Imax) in assay [1] (setting [7]) is 100%. Besides, at 5-HT1A receptor [2] (setting [6]), the Emax amounted to 0%.

For `NC(=O)c1ccc(F)c2c1CC(NCCCc1c[nH]c3ccc(F)cc13)CO2` (centres unmarked) [Compound 1, 8-fluoro-3-{[3-(5-fluoro-1H-indol-3-yl)propyl]amino}chromane-5-carboxamide], the Ki on serotonin transporter was found to be 7 nM; on 5-HT1A receptor [3], 212 nM. Also, the EC50 in assay [1] amounted to 5000 nM; on 5-HT1A receptor [2], 229 nM. The Emax in assay [1] (setting [5]) was found to be 100%; at 5-HT1A receptor [2] (setting [6]), 79.5%.

On to `COc1cccc2c1CC(N(CCCc1c[nH]c3ccc(C#N)cc13)C1CCC1)CO2` (centres unmarked) [Compound 46, 3-{3-[cyclobutyl(5-methoxy-3,4-dihydro-2H-chromen-3-yl)amino]propyl}-1H-indole-5-carbonitrile], for which the Ki is 7.6 nM at serotonin transporter and 14.6 nM on 5-HT1A receptor [3]. For the same compound, the response in assay [1] was half-maximal at 107 nM (EC50). Further, the results for the IC50 (in assay [1]; on 5-HT1A receptor [2]) were 218 nM and 899 nM, respectively. The Emax was found to be 81% in assay [1] (setting [4]), 36% in assay [1] (setting [5]) and 0% on 5-HT1A receptor [2] (setting [6]).

For the compound `O=C(NCC1CC1)c1cccc2c1CC(N(CCCc1c[nH]c3c(F)cc(F)cc13)C1CCC1)CO2` (centres unmarked) [Compound 144, 3-{cyclobutyl[3-(5,7-difluoro-1H-indol-3-yl)propyl]amino}-N-(cyclopropylmethyl)chromane-5-carboxamide], the Ki on serotonin transporter turned out to be 5.5 nM; at 5-HT1A receptor [3] it was 169 nM. Moreover, the results for the half-maximal effective concentration (EC50) (in assay [1]; at 5-HT1A receptor [2]) were 7600 nM and 4990 nM, respectively. Further, the Emax stood at 73% in assay [1] (setting [5]) and 100% at 5-HT1A receptor [2] (setting [6]).

As for `CCCN(CCCCc1c[nH]c2ccc(F)cc12)C1COc2c(F)ccc(C(=O)NC)c2C1` (centres unmarked) [Compound 93, 8-fluoro-3-[[4-(5-fluoro-1H-indol-3-yl)butyl](propyl)amino]-N-methylchromane-5-carboxamide], the results for the inhibition constant (Ki) at serotonin transporter and at 5-HT1A receptor [3] were 2.49 nM and 7.67 nM, respectively. Besides, the IC50 in assay [1] was 304 nM; on 5-HT1A receptor [2], 228 nM. The Emax in assay [1] (setting [4]) was found to be 100%; on 5-HT1A receptor [2] (setting [6]), 0%.

For `CCCN(CCCc1c[nH]c2ccc(Cl)cc12)C1COc2c(F)ccc(C(N)=O)c2C1` (centres unmarked) [Compound 116, 3-[[3-(5-chloro-1H-indol-3-yl)propyl](propyl)amino]-8-fluorochromane-5-carboxamide], the Ki at serotonin transporter came out at 151 nM; at 5-HT1A receptor [3], 1.45 nM. Also, the EC50 came out at 61.2 nM in assay [1] and 7.82 nM at 5-HT1A receptor [2]. Also, the IC50 in assay [1] is 843 nM. The values for the Emax (in assay [1] (setting [4]); in assay [1] (setting [5]); on 5-HT1A receptor [2] (setting [6])) were 45%, 50% and 80%, respectively.

As to `CCCNC(=O)c1ccc(F)c2c1CC(N(CCCc1c[nH]c3ccc(F)cc13)C1CCC1)CO2` (centres unmarked) [Compound 61, 3-{cyclobutyl[3-(5-fluoro-1H-indol-3-yl)propyl]amino}-8-fluoro-N-propylchromane-5-carboxamide], the results for the Ki on serotonin transporter and at 5-HT1A receptor [3] were 2.4 nM and 195 nM, respectively. The results for the IC50 (in assay [1]; at 5-HT1A receptor [2]) were 800 nM and 593 nM, respectively. Also, the Emax on 5-HT1A receptor [2] (read-out: 5-HT1A Function cAMP (Emax), in brackets after EC50 or IC50) turned out to be 0%.

Take `NC(=O)c1ccc(F)c2c1C[C@@H](N(CCCCc1c[nH]c3ccc(F)cc13)C1CCC1)CO2` [Compound 83a, (3R)-3-{cyclobutyl[4-(5-fluoro-1H-indol-3-yl)butyl]amino}-8-fluorochromane-5-carboxamide]: the inhibition constant Ki at serotonin transporter came to 13.2 nM; on 5-HT1A receptor [3] it was 3.43 nM. Moreover, the IC50 came out at 505 nM in assay [1] and 173 nM on 5-HT1A receptor [2]. The Emax in assay [1] (setting [4]) was found to be 100%; at 5-HT1A receptor [2] (setting [6]), 0%.

On to `CCCN(C(C)CCc1c[nH]c2ccc(F)cc12)C1COc2c(F)ccc(C(N)=O)c2C1` (single isomer, unassigned) [Compound 12c, 8-fluoro-3-[[3-(5-fluoro-1H-indol-3-yl)-1-methylpropyl](propyl)amino]-3,4-dihydro-2H-chromene-5-carboxamide], for which the Ki at serotonin transporter is 121 nM; on 5-HT1A receptor [3], 48.8 nM. Moreover, the half-inhibitory concentration (IC50) is 3000 nM in assay [1] and 73.7 nM on 5-HT1A receptor [2]. Besides, the 5-HT1A Function GTPγS (Imax) in assay [1] (setting [7]) is 100%. In addition, the 5-HT1A Function cAMP (Emax) at 5-HT1A receptor [2] (in brackets after EC50 or IC50) amounted to 0%.

With `COc1cccc2c(CCCCN(C3CCC3)C3COc4c(F)ccc(C(N)=O)c4C3)coc12` (centres unmarked) [Compound 171, 3-{cyclobutyl[4-(7-methoxy-1-benzofuran-3-yl)butyl]amino}-8-fluorochromane-5-carboxamide], the Ki at serotonin transporter was determined as 11200 nM; on 5-HT1A receptor [3] it was 4.27 nM. The IC50 is 404 nM in assay [1] and 108 nM at 5-HT1A receptor [2]. In addition, the Emax in assay [1] (setting [4]) came to 100%; at 5-HT1A receptor [2] (setting [6]) it was 0%.

Consider `CCCN(CCCc1c[nH]c2ccc(F)cc12)[C@@H]1CCc2cccc(OC)c2C1` [Compound 47b, (2R)-N-[3-(5-fluoro-1H-indol-3-yl)propyl]-8-methoxy-N-propyl-1,2,3,4-tetrahydronaphthalen-2-amine], for which the Ki came to 1.1 nM on serotonin transporter and 0.34 nM at 5-HT1A receptor [3]. Besides, the EC50 in assay [1] turned out to be 19.4 nM; at 5-HT1A receptor [2], 1.55 nM. In addition, the Emax is 87% in assay [1] (setting [5]) and 100% at 5-HT1A receptor [2] (setting [6]).

With `CCN(CCCc1c[nH]c2ccc(F)cc12)C1COc2cccc(OC)c2C1` (centres unmarked) [Compound 31, N-ethyl-N-[3-(5-fluoro-1H-indol-3-yl)propyl]-5-methoxychroman-3-amine], the Ki at serotonin transporter was found to be 2.2 nM; on 5-HT1A receptor [3], 2.33 nM. Further, the concentration for a half-maximal effect (EC50) in assay [1] was found to be 53.5 nM; at 5-HT1A receptor [2], 26.3 nM. For the same compound, the Emax in assay [1] (setting [5]) came out at 99%; on 5-HT1A receptor [2] (setting [6]), 96%.

Turning to `CCCN(CCCc1c[nH]c2ccc(F)cc12)C1COc2c(F)ccc(C(N)=O)c2C1` (centres unmarked) [Compound 2, 8-fluoro-3-{[3-(5-fluoro-1H-indol-3-yl)propyl](propyl)amino}chromane-5-carboxamide], the Ki amounted to 6 nM at serotonin transporter and 2.94 nM on 5-HT1A receptor [3]. The EC50 came to 168 nM in assay [1] and 10.4 nM on 5-HT1A receptor [2]. Besides, the Emax in assay [1] (setting [5]) came to 77%; on 5-HT1A receptor [2] (setting [6]) it was 83.5%.

In the case of `COc1cccc2c1CC(N(CCCc1c[nH]c3ccc(F)cc13)C1CCC1)CO2` (centres unmarked) [Compound 34, N-cyclobutyl-N-[3-(5-fluoro-1H-indol-3-yl)propyl]-5-methoxychroman-3-amine], the Ki at serotonin transporter stood at 13 nM; at 5-HT1A receptor [3], 15.6 nM. Besides, the IC50 in assay [1] turned out to be 2130 nM. Besides, the Emax amounted to 76% in assay [1] (setting [4]) and 37% on 5-HT1A receptor [2] (setting [6]). The compound also had an EC50 on 5-HT1A receptor [2] of 61.9 nM.

As for `COC(=O)c1cccc2c1CC(N(CCCc1c[nH]c3c(F)cc(F)cc13)C1CCC1)CO2` (centres unmarked) [Compound 136, Methyl 3-{cyclobutyl[3-(5,7-difluoro-1H-indol-3-yl)propyl]amino}chromane-5-carboxylate], the inhibitory constant (Ki) on serotonin transporter turned out to be 203 nM; at 5-HT1A receptor [3] it was 27.6 nM. Further, the EC50 in assay [1] is 1330 nM; at 5-HT1A receptor [2], 635 nM. Further, the Emax in assay [1] (setting [5]) worked out at 95%; on 5-HT1A receptor [2] (setting [6]) it was 89%.

With `NC(=O)c1ccc(F)c2c1OCC(N(CCCc1c[nH]c3c(F)cc(F)cc13)CC1CC1)C2` (centres unmarked) [Compound 130, 3-{(cyclopropylmethyl)[3-(5,7-difluoro-1H-indol-3-yl)propyl]amino}-5-fluorochromane-8-carboxamide], the Ki on serotonin transporter is 166 nM; on 5-HT1A receptor [3], 74.3 nM. Also, the EC50 in assay [1] stood at 788 nM; on 5-HT1A receptor [2], 14.8 nM. Moreover, the results for the Emax (in assay [1] (setting [5]); at 5-HT1A receptor [2] (setting [6])) were 39% and 72%, respectively.

One may read the EC50 as the midpoint of the concentration-response curve. For orientation: IC50 means the concentration at which inhibition is half-maximal. As a reminder, the Ki is a dissociation constant, usually derived from enzyme kinetics or from competition with a known ligand.
